The values that follow come from patent publication US4016280A, “4,4-Diarylpiperidine compositions and use” (Byk Gulden Lomberg Chemische Fabrik GmbH, priority 1969, dated 1977).

SMILES strings stand for the structures. Entries after “also recorded” stand apart in the source; their conditions may differ. Where two headings read alike, the source gives them in different places.

The nature of data set [1]: Acute toxicity in the albino mouse. Particulars: mouse, in vivo, Table 2. The method, then:
As stated above, the compounds of formula I have advantageous central nervous system stimulating properties. Side-effects, as they are encountered on administration of amphetamine-type stimulants, are produced to a much lesser extent by the 4,4-diphenylpiperidine compounds, if at all. […] The tests were carried out according to known and accepted pharmacological standard test methods.
a Acute toxicity 150 mg./kg. 100 mg./kg.

Data set [2] concerns albino mouse. The experiment in a line: Antagonism in the albino mouse of tremorine tremor. In kind it is in vivo. Particulars: tremorine 15 mg/kg i.p., drug per os, Examples 28, 29: 50 to 300 mg/kg; for ED50: Mus musculus, po. How it is done:
(§1) Antagonism in the albino mouse
(§2) of tion dation p.o.) i.p.)
(§3) *drugs administered per os
(§4) **administered in doses from 50 to 300 mg/kg

Data set [3] concerns albino mouse. The experiment in a line: General behaviour of the albino mouse with different doses. In kind it is in vivo. The following applies: albino mouse; for Locomotory activity / Restlessness Stereotype / Salivation / Vigilance: different doses per os, Examples 28, 29: 50 to 300 mg/kg. How it is done: Acute toxi- General behaviour of the albino
city in the mouse with different doses*
as §3, §4

Data set [4] deals with albino mouse. The experiment in a line: Antagonism in the albino mouse of reserpine (preventive and curative ptosis/sedation). In kind it is in vivo. The following applies: reserpine 2mg/kg sc., drug per os; for ED50: Mus musculus, po. The method, then:
as §1
(§5) Com- Preventive Curative catalepsy
as §2, §3, §4

Data set [5] deals with albino mouse. The experiment in a line: Antagonism in the albino mouse of perphenazine catalepsy. Particulars: perphenazine 10 mg/kg p.o., drug per os, Examples 28, 29: 50 to 300 mg/kg; for ED50: Mus musculus, po. In kind it is in vivo. The method, then: as §1, §5, §2, §3, §4
For data set [6] the following is noted: Marshall, Brit. J. Pharmacol. 10, 270 (1955), technique of Schild; cited from earlier work.
The mark [7] stands for this setting: iv, i.v., read-out: Acute toxicity in the albino mouse LD50 i.v.
[8] abbreviates: Examples 28, 29: 50 to 300 mg/kg, read-out: Reserpine antagonism, Curative Sedation ED50.
Where [9] appears, read: Examples 28, 29: 50 to 300 mg/kg, read-out: Reserpine antagonism, Curative ptosis ED50.
[10] abbreviates: read-out: Reserpine antagonism, Preventive Sedation ED50.
[11] abbreviates: read-out: Reserpine antagonism, Preventive ptosis ED50.
Where [12] appears, read: Examples 28, 29: 50 to 300 mg/kg.

On to `COCCCN1CCC(c2ccccc2)(c2ccccc2)CC1` [Example 7, 1-(3-Methoxypropyl)-4,4-diphenylpiperidine], for which, in data set [1] (setting [7]), the LD50 was 30 mg/kg. The compound further showed an ED50 in data set [2] of 3 mg/kg. In data set [3], the “Locomotory activity (in words)” value was “only slightly increased”; the “Restlessness, stereotypia or salivation (in words)” value (“Restlessness … (in words)” for short) was “without causing restlessness, sterotypia or salivation”; the “Vigilance of the animal (in words)” value is listed as “strong increase”; the Locomotory activity entry is on record as “(+)”. In data set [3], the “Restlessness Stereotype” value is “.phi. (no effect)”, the Salivation result is listed as “.phi. (no effect)” and the Vigilance entry is given as “++”.
Turning to `CC(=O)CN1CCC(c2ccccc2)(c2ccccc2)CC1` [Example 17, 1-Acetonyl-4,4-diphenylpiperidine], the ED50 in data set [4] (setting [8]) is about 25 mg/kg. For the same compound, the ED50 in data set [4] (setting [9]) is over 25 mg/kg. In addition, in data set [4] (setting [10]), the ED50 was 15 mg/kg. The 50% effective dose (ED50) in data set [4] (setting [11]) worked out at 12 mg/kg. Further, the LD50 in data set [1] (setting [7]) is 34 mg/kg. Further, the ED50 in data set [5] was over 25 mg/kg. This compound also gave an ED50 in data set [2] of 17 mg/kg. For the same compound, in data set [3], the “Locomotory activity (in words)” value is on record as “only slightly increased”; the “Restlessness … (in words)” value is recorded as “without causing restlessness, sterotypia or salivation”; the “Vigilance of the animal (in words)” value is given as “strong increase”; the Locomotory activity entry was “(+)”. For the same compound, in data set [3], the “Restlessness Stereotype” value is on record as “.phi. (no effect)”, the Salivation entry is on record as “.phi. (no effect)” and the Vigilance entry was “++”.
In the case of `c1ccc(CN2CCC(c3ccccc3)(c3ccccc3)CC2)cc1` [Example 10, 1-Benzyl-4,4-diphenylpiperidine], the LD50 in data set [1] (setting [7]) is 20 mg/kg. In addition, in data set [3], the “Locomotory activity (in words)” value is recorded as “only slightly increased”; the “Restlessness … (in words)” value was “without causing restlessness, sterotypia or salivation”; the “Vigilance of the animal (in words)” value is listed as “strong increase”; the Vigilance entry is recorded as “++”.
As to `c1ccc(CCN2CCC(c3ccccc3)(c3ccccc3)CC2)cc1` [Example 5, 1-Phenethyl-4,4-diphenylpiperidine], the ED50 in data set [4] (setting [10]) worked out at 3 mg/kg. Also, the ED50 in data set [4] (setting [11]) was determined as 3 mg/kg. In addition, in data set [4] (setting [12]), the “Reserpine antagonism, Curative Sedation ED50” value is listed as “(+)” and the “Reserpine antagonism, Curative ptosis ED50” value was “(+)”. The LD50 in data set [1] (setting [7]) worked out at 19 mg/kg. The “Tremorine tremor antagonism ED50” value in data set [2] is “.phi. (no effect)”. Moreover, in data set [3], the Locomotory activity entry is recorded as “- (decrease)”, the “Restlessness Stereotype” value is “.phi. (no effect)”, the Salivation entry was “.phi. (no effect)” and the Vigilance entry is “+ (increase)”. Further, the “Remark under Locomotory activity (Ataxy)” value in data set [3] (per os) is on record as “Ataxy”.
Take `OCCN1CCC(c2ccccc2)(c2ccccc2)CC1` [Example 9, 1-(2-Hydroxyethyl)-4,4-diphenylpiperidine]: the ED50 in data set [4] (setting [8]) was determined as 15 mg/kg. Also, in data set [4] (setting [10]), the ED50 turned out to be 8 mg/kg. Besides, the median effective dose (ED50) in data set [4] (setting [11]) came out at 10 mg/kg. The “Reserpine antagonism, Curative ptosis ED50” value in data set [4] (setting [12]) is “(+)”. Besides, the LD50 in data set [1] (setting [7]) is 33 mg/kg. The ED50 in data set [5] amounted to 15 mg/kg. Moreover, it took a dose of 10 mg/kg to reach the 50% effect level in data set [2] (ED50). Further, in data set [3], the “Locomotory activity (in words)” value is on record as “only slightly increased”; the “Restlessness … (in words)” value is reported as “without causing restlessness, sterotypia or salivation”; the “Vigilance of the animal (in words)” value was “strong increase”; the Locomotory activity result is reported as “(+)”. In addition, in data set [3], the “Restlessness Stereotype” value is listed as “.phi. (no effect)”, the Salivation result is on record as “.phi. (no effect)” and the Vigilance result is listed as “++”.
For `CCN1CCC(c2ccccc2)(c2ccccc2)CC1` [Example 3, 1-Ethyl-4,4-diphenylpiperidine], the ED50 in data set [4] (setting [8]) was 50 mg/kg; in data set [4] (setting [9]), over 50 mg/kg; in data set [4] (setting [10]) it was 5 mg/kg; in data set [4] (setting [11]), 5 mg/kg; in data set [5] it was 2 mg/kg; in data set [2], 1 mg/kg. The LD50 in data set [1] (setting [7]) came to 45 mg/kg; in data set [1] (po, p.o., read-out: Acute toxicity in the albino mouse LD50 p.o.), 150 mg/kg. In data set [3], the Locomotory activity entry is reported as “(+)”. In addition, the “Restlessness Stereotype” value in data set [3] is “.phi. (no effect)”. In addition, the Salivation entry in data set [3] is given as “.phi. (no effect)”. Further, in data set [3], the Vigilance entry is recorded as “++”.
For `OCCCN1CCC(c2ccccc2)(c2ccccc2)CC1` [Example 30, 1-(3-hydroxypropyl)-4,4-diphenylpiperidine], in data set [4] (setting [10]), the ED50 is 25 mg/kg. Also, in data set [4] (setting [11]), the ED50 was found to be 25 mg/kg. For the same compound, in data set [4] (setting [12]), the “Reserpine antagonism, Curative Sedation ED50” value is “.phi. (no effect)” and the “Reserpine antagonism, Curative ptosis ED50” value was “(+)”. Moreover, the LD50 in data set [1] (setting [7]) amounted to 32 mg/kg. The compound also had an ED50 in data set [5] of 5 mg/kg. In data set [2], this compound gave an ED50 of 5 mg/kg. For the same compound, in data set [3], the “Locomotory activity (in words)” value is recorded as “only slightly increased”; the “Restlessness … (in words)” value is on record as “without causing restlessness, sterotypia or salivation”; the “Vigilance of the animal (in words)” value is given as “strong increase”; the Locomotory activity result is on record as “+ (increase)”. Moreover, in data set [3], the “Restlessness Stereotype” value is listed as “.phi. (no effect)”, the Salivation entry is reported as “.phi. (no effect)” and the Vigilance entry is “++”.
For the compound `c1ccc(C2(c3ccccc3)CCNCC2)cc1` [Example 19, 4,4-Diphenylpiperidine], the ED50 in data set [4] (setting [8]) came to 10 mg/kg. Besides, the ED50 in data set [4] (setting [9]) was over 50 mg/kg. Further, in data set [4] (setting [10]), the 50% effective dose (ED50) came out at 5 mg/kg. Moreover, in data set [4] (setting [11]), the ED50 was 10 mg/kg. Also, the LD50 in data set [1] (setting [7]) amounted to 25 mg/kg. Also, in data set [5], the ED50 was 20 mg/kg. Besides, in data set [2], the 50% effect level (ED50) was put at a dose of 2 mg/kg. In data set [3], the “Locomotory activity (in words)” value is on record as “only slightly increased”; the “Restlessness … (in words)” value is on record as “without causing restlessness, sterotypia or salivation”; the “Vigilance of the animal (in words)” value was “strong increase”; the Locomotory activity result is recorded as “(+)”. Besides, in data set [3], the “Restlessness Stereotype” value is reported as “.phi. (no effect)”, the Salivation entry was “.phi. (no effect)” and the Vigilance entry was “++”.
With `CCC(C)N1CCC(c2ccccc2)(c2ccccc2)CC1` (stereo not shown) [Example 26, 1-(secondary Butyl)-4,4-diphenylpiperidine], the ED50 in data set [4] (setting [8]) is 10 mg/kg. Also, the median effective dose (ED50) in data set [4] (setting [10]) stood at 10 mg/kg. In data set [4] (setting [11]), the ED50 came to 25 mg/kg. The “Reserpine antagonism, Curative ptosis ED50” value in data set [4] (setting [12]) is given as “(+)”. In addition, the LD50 in data set [1] (setting [7]) came to 19 mg/kg. Moreover, the Antihistaminic activity entry in data set [6] is given as “devoid of any therapeutically-utilizable antihistaminic activity; also recorded: devoid of any therapeutically utilizable antihistaminic activity”. The ED50 in data set [5] amounted to 7 mg/kg. This compound also displayed a median effective dose (ED50) in data set [2] of 5 mg/kg. Besides, in data set [3], the “Locomotory activity (in words)” value was “only slightly increased”; the “Restlessness … (in words)” value is “without causing restlessness, sterotypia or salivation”; the “Vigilance of the animal (in words)” value is reported as “strong increase”; the Locomotory activity result was “(+)”. Besides, in data set [3], the “Restlessness Stereotype” value is listed as “.phi. (no effect)”, the Salivation result is listed as “.phi. (no effect)” and the Vigilance entry is on record as “++”.
In the case of `CC(=O)CCN1CCC(c2ccccc2)(c2ccccc2)CC1` [Example 32, 1-(2-Acetoethyl)-4,4-diphenylpiperidine], in data set [4], the “Reserpine antagonism, Preventive Sedation ED50” value is 15 mg/kg and the “Reserpine antagonism, Preventive ptosis ED50” value came to 10 mg/kg. Also, in data set [4] (setting [12]), the “Reserpine antagonism, Curative Sedation ED50” value is ~ 50 mg/kg and the “Reserpine antagonism, Curative ptosis ED50” value is listed as over 60 mg/kg. Also, the “Perphenazine catalepsy antagonism ED50” value in data set [5] is 45 mg/kg. Besides, in data set [2], the “Tremorine tremor antagonism ED50” value amounted to 15 mg/kg. In data set [3], the “Locomotory activity (in words)” value was “only slightly increased”; the “Restlessness … (in words)” value is “without causing restlessness, sterotypia or salivation”; the “Vigilance of the animal (in words)” value was “strong increase”; the Locomotory activity entry is “(+)”. For the same compound, in data set [3], the “Restlessness Stereotype” value is reported as “.phi. (no effect)”, the Salivation entry is “.phi. (no effect)” and the Vigilance result is recorded as “++”.
